Experimental data as given in US11213514B2, “Alpha-1-adrenergic receptor agonist therapy” (The Regents of the University of California, priority 2016, dated 2022).

System: ERK
Experiment: ERK activation in neonatal rat ventricular myocytes (pERK/ERK Western blot)
Format: cell-based
Details: NRVMs, norepinephrine 1 μM in the presence of propranolol 1 μM
From the text: FIGS. 4A-4F. […] The reaction was stopped immediately and lysates were blotted for total and phospho-ERK (pERK). FIG. 4A. Representative Western blot. FIG. 4B. […] FIG. 4C. Summary of pERK/ERK for experiments using 5 different NRVM isolations. The average pERK/ERK ratio for each experiment was derived from at least 2 individual wells and normalized to the pERK/ERK ratio for vehicle treated NRVMs. FIG. 4D and FIG. 4E. […] Heart lysates were blotted for pERK and ERK. Results were compared using one way ANOVA with Tukey post-test. FIG. 4F.
Dabuzalgron protects neonatal rat ventricular myocytes from cell death due to doxorubicin. […] (FIG. 4C).
Female Sprague-Dawley rats were from Charles River. NRVMs were isolated as previously described.7 Briefly, hearts from 1-2 day old rat pups were minced, digested serially in collagenase (Worthington)-containing solution, filtered, then pre-plated to exclude non-myocyotes. NRVMs were then plated on laminin-coated dishes in DMEM with 5% fetal bovine serum (Sigma F2442) for 24 hours. Experiments were carried out after 36-96 hours of serum starvation in the presence of insulin, transferrin, and BrdU. […]
All results are presented as mean±SEM. […] EC50 for ERK activation was calculated using sigmoidal dose-response analysis (Prism).

In the case of `NC[C@H](O)c1ccc(O)c(O)c1` [norepinephrine], the “increase of pERK/ERK ratio” value is reported as “roughly 1.5 fold”.
